Data published in ChEMBL document CHEMBL4330185, “Computer-Assisted Discovery and Structural Optimization of a Novel Retinoid X Receptor Agonist Chemotype” (ACS Med Chem Lett, 2019).
In brackets after ≈: the same amount, converted by molar mass. Activity calls are given as the source filed them. The rule behind the calls is not given here.

Columns and labels:
[1] = biological target: T1, Retinoic acid receptor RXR-beta (Homo sapiens) (UniProt P28702); test: Agonist activity at human Gal4-DBD fused RXRbeta LBD expressed in HEK293T cells at 30 uM after 12 to 14 hrs by luciferase reporter gene assay; format: cell-based
T1 sequence (whole entry): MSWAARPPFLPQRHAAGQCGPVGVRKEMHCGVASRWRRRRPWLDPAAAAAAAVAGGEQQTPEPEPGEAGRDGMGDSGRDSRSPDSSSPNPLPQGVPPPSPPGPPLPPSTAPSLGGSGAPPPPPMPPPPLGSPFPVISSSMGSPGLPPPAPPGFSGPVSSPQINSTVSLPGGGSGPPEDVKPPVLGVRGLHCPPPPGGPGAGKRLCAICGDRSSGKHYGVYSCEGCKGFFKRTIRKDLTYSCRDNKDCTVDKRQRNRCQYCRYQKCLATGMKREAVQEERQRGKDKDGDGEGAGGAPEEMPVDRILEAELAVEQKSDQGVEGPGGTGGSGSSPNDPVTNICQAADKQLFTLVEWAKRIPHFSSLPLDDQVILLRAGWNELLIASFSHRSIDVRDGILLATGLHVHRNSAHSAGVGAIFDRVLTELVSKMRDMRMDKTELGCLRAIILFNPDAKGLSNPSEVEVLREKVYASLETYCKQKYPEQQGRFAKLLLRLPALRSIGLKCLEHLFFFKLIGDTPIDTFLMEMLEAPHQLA

[2] = biological target: T2, Retinoic acid receptor RXR-gamma (Homo sapiens) (UniProt P48443); test: Agonist activity at human Gal4-DBD fused RXRgamma LBD expressed in HEK293T cells at 30 uM after 12 to 14 hrs by luciferase reporter gene assay; format: cell-based
T2 sequence (whole entry): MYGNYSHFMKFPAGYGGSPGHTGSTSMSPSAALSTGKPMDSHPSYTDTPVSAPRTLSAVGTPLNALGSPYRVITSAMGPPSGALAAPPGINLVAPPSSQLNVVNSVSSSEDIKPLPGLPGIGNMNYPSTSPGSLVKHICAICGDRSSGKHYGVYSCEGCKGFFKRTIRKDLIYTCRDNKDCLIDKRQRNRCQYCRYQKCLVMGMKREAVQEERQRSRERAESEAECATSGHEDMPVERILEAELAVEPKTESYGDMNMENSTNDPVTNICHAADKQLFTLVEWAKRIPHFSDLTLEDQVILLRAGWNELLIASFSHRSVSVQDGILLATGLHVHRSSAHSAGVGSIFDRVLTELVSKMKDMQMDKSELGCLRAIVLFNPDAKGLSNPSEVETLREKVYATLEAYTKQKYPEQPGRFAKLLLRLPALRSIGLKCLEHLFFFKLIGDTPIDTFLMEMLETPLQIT

[3] = biological target: T3, Retinoic acid receptor RXR-alpha (Homo sapiens) (UniProt P19793); test: Agonist activity at human Gal4-DBD fused RXRalpha LBD expressed in HEK293T cells at 30 uM after 12 to 14 hrs by luciferase reporter gene assay; format: cell-based
T3 sequence (whole entry): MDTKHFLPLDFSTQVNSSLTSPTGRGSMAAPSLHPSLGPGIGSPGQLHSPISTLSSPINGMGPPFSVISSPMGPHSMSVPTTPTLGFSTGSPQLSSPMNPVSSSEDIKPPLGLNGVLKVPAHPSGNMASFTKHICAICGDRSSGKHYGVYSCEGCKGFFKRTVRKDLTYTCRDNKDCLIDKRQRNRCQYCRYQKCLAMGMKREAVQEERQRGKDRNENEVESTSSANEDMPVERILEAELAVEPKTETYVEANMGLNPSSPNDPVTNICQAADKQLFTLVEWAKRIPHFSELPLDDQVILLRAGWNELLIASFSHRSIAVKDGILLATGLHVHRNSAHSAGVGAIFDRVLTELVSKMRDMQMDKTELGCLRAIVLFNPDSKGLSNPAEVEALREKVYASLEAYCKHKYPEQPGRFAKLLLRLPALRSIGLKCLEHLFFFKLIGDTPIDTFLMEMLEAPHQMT

[4] = biological target: T4, Retinoic acid receptor beta (Homo sapiens) (UniProt P10826); test: Agonist activity at human Gal4-DBD fused RARbeta LBD expressed in HEK293T cells at 30 uM after 12 to 14 hrs by luciferase reporter gene assay; format: cell-based
T4 sequence (whole entry): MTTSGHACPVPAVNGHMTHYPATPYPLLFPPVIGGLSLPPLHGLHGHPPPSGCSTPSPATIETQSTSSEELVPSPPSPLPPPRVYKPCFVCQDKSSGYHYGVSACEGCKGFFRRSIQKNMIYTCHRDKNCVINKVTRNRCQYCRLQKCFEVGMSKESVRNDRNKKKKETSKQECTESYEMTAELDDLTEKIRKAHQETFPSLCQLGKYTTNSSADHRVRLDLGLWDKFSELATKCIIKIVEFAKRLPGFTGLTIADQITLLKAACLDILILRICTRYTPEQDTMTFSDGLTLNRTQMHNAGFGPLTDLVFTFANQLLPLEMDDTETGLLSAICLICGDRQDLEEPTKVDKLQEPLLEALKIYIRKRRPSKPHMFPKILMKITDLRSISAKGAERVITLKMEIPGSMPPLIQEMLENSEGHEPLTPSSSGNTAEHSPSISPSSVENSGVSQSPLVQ

[5] = biological target: T3, Retinoic acid receptor RXR-alpha (Homo sapiens); test: Agonist activity at human Gal4-DBD fused RXRalpha LBD expressed in HEK293T cells after 12 to 14 hrs by luciferase reporter gene assay relative to bexarotene; format: cell-based
[6] = test system: HepG2; test: Cytotoxicity against human HepG2 cells up to 100 uM after 48 hrs by WST1 assay; format: cell-based; details: hepg2, 48 h
[7] = biological target: T5, Retinoic acid receptor RXR-beta (Homo sapiens, UniProt P28702); test: Agonist activity at human Gal4-DBD fused RXRbeta LBD expressed in HEK293T cells after 12 to 14 hrs by luciferase reporter gene assay; format: cell-based; details: read-out: EC50
T5 sequence (P28702 whole entry): T1 sequence (whole entry)

[8] = biological target: T3, Retinoic acid receptor RXR-alpha (Homo sapiens); test: Agonist activity at human Gal4-DBD fused RXRalpha LBD expressed in HEK293T cells at 10 uM after 12 to 14 hrs by luciferase reporter gene assay; format: cell-based
[9] = biological target: T1, Retinoic acid receptor RXR-beta (Homo sapiens); test: Agonist activity at human Gal4-DBD fused RXRbeta LBD expressed in HEK293T cells after 12 to 14 hrs by luciferase reporter gene assay relative to bexarotene; format: cell-based
[10] = biological target: T6, Retinoic acid receptor gamma (Homo sapiens) (UniProt P13631); test: Agonist activity at human Gal4-DBD fused RARgamma LBD expressed in HEK293T cells at 30 uM after 12 to 14 hrs by luciferase reporter gene assay; format: cell-based
T6 sequence (whole entry): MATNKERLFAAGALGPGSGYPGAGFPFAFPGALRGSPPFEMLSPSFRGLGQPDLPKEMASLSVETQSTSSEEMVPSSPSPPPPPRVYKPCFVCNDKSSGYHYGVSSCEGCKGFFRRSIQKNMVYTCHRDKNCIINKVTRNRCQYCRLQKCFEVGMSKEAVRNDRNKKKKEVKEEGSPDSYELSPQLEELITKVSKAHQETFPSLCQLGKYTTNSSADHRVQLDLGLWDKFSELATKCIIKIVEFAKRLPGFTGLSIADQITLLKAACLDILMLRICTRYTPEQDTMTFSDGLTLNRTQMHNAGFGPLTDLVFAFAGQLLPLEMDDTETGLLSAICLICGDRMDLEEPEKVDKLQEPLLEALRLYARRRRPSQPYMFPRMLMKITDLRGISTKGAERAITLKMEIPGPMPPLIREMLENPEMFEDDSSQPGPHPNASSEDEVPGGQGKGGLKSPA

[11] = biological target: T7, Retinoic acid receptor RXR-gamma (Homo sapiens, UniProt P48443); test: Agonist activity at human Gal4-DBD fused RXRgamma LBD expressed in HEK293T cells after 12 to 14 hrs by luciferase reporter gene assay; format: cell-based; details: read-out: EC50
T7 sequence (P48443 whole entry): T2 sequence (whole entry)

[12] = biological target: T2, Retinoic acid receptor RXR-gamma (Homo sapiens); test: Agonist activity at human Gal4-DBD fused RXRgamma LBD expressed in HEK293T cells after 12 to 14 hrs by luciferase reporter gene assay relative to bexarotene; format: cell-based
[13] = biological target: T8, Retinoic acid receptor RXR-alpha (Homo sapiens, UniProt P19793); test: Agonist activity at human Gal4-DBD fused RXRalpha LBD expressed in HEK293T cells after 12 to 14 hrs by luciferase reporter gene assay; format: cell-based; details: read-out: EC50
T8 sequence (P19793 whole entry): T3 sequence (whole entry)

[14] = biological target: T9, Retinoic acid receptor alpha (Homo sapiens) (UniProt P10276); test: Agonist activity at human Gal4-DBD fused RARalpha LBD expressed in HEK293T cells at 30 uM after 12 to 14 hrs by luciferase reporter gene assay; format: cell-based
T9 sequence (whole entry): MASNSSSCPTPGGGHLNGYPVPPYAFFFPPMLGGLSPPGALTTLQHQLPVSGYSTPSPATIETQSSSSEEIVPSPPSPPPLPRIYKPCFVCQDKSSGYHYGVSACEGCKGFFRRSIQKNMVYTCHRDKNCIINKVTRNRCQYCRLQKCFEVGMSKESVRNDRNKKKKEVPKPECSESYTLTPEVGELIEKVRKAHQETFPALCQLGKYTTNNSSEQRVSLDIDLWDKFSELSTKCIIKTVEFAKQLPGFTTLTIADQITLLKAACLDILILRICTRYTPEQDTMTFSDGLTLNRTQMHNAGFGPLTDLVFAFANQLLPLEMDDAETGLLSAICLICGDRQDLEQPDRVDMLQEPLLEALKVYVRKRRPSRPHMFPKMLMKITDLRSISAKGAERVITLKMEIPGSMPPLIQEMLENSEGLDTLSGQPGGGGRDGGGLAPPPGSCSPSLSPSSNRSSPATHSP

[15] = biological target: Luciferin 4-monooxygenase (Photinus pyralis) (UniProt P08659); test: Inhibition of firefly luciferase activity in HEK293T cells co-expressing human Gal4-DBD fused RXRbeta LBD after 12 to 14 hrs by luminescence assay; format: cell-based
[16] = biological target: Luciferin 4-monooxygenase (Photinus pyralis) (UniProt P08659); test: Inhibition of firefly luciferase activity in HEK293T cells co-expressing human Gal4-DBD fused RXRgamma LBD after 12 to 14 hrs by luminescence assay; format: cell-based
[17] = biological target: Luciferin 4-monooxygenase (Photinus pyralis) (UniProt P08659); test: Inhibition of firefly luciferase activity in HEK293T cells co-expressing human Gal4-DBD fused RXRalpha LBD after 12 to 14 hrs by luminescence assay; format: cell-based
[18] = biological target: T10, Retinoid X receptor (Homo sapiens) (UniProt P28702+P48443+P19793); test: Agonist activity at RXR in human HepG2 cells assessed as induction of APOE mRNA expression at 1 to 10 uM after 8 hrs by RT-PCR analysis; format: cell-based
[19] = Synergistic agonist activity at full length human PPARgamma-RXR expressed in HEK293T cells co-expressing PPRE1-pGL3 after 12 to 14 hrs in presence of rosiglitazone by luciferase reporter gene assay; format: cell-based; details: HEK-293T
[20] = species on record: Homo sapiens; test: Synergistic agonist activity at full length human RXR-LXR expressed in HEK293T cells co-expressing ABCA1-pGL3 at 1 uM after 12 to 14 hrs in presence of T090 by luciferase reporter gene assay; format: cell-based
[21] = Lipophilicity, log P of the compound by HPLC analysis; format: physicochemical
[22] = species on record: Homo sapiens; test: Agonist activity at full length human RXR-LXR expressed in HEK293T cells co-expressing ABCA1-pGL3 at 1 uM after 12 to 14 hrs by luciferase reporter gene assay; format: cell-based
[23] = Aqueous solubility of the compound after 24 hrs by HPLC analysis; format: physicochemical; details: water
[24] = biological target: T10, Retinoid X receptor (Homo sapiens); test: Agonist activity at RXR in human HepG2 cells assessed as induction of ADIPOQ mRNA expression at 1 to 10 uM after 8 hrs by RT-PCR analysis; format: cell-based
[25] = biological target: T8, Retinoic acid receptor RXR-alpha; test: Binding affinity to human RXRalpha LBD by ITC
[26] = biological target: T10, Retinoid X receptor (Homo sapiens); test: Agonist activity at RXR in human HepG2 cells assessed as induction of ANGPTL4 mRNA expression at 1 to 10 uM after 8 hrs by RT-PCR analysis; format: cell-based
[27] = Agonist activity at full length human PPARgamma-RXR expressed in HEK293T cells co-expressing PPRE1-pGL3 after 12 to 14 hrs by luciferase reporter gene assay; format: cell-based; details: HEK-293T

Sequence of Luciferin 4-monooxygenase (Photinus pyralis) (P08659 whole entry, the tested form may be a part): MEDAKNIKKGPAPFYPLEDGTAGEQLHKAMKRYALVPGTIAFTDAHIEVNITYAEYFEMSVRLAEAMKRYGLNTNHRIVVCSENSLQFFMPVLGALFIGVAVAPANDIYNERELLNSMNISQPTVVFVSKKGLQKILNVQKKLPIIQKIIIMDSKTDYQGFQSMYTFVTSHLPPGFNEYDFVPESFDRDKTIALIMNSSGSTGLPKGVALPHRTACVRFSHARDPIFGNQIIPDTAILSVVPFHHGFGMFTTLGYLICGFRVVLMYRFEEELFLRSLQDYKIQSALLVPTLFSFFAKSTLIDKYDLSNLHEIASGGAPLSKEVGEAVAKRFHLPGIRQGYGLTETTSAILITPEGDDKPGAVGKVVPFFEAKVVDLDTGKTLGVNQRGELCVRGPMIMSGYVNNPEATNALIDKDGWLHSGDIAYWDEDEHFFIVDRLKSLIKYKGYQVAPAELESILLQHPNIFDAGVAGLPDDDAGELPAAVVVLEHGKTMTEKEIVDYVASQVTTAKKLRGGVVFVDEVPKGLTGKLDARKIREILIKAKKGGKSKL

SMILES: O=C(O)c1ccc(C(=O)Nc2ccc3c(c2)CCC3)cc1
- Activity [1]: inactive
- Activity [2]: inactive
- Activity [3]: inactive

SMILES: O=C(O)c1ccc(COc2ccc3c(c2)CCC3)cc1
- Activity [4]: Active
- Emax [5]: 29%
- Activity [6]: Non-Toxic
- EC50 [7]: 8800 nM
- Activity [8]: Active
- Emax [9]: 28%
- Activity [10]: Active
- EC50 [11]: 17000 nM
- Emax [12]: 5%
- EC50 [13]: 6700 nM
- Activity [14]: Active

SMILES: O=C(O)c1cccc(COc2ccc3c(c2)CCC3)c1
- inhibition [15]: Active
- inhibition [16]: Active
- inhibition [17]: Active

SMILES: O=C(O)c1ccc(COc2ccccc2-c2ccccc2)cc1
- Emax [5]: 70%
- Activity [18]: Active
- EC50 [19]: 470 nM
- Activity [6]: Non-Toxic
- EC50 [7]: 310 nM
- Emax [9]: 44%
- Activity [20]: Active
- logP ([21]; read-out: logP): 2.03
- Activity [22]: Active
- solubility at 24 h [23]: 1.31 µg/mL (≈ 4.3 µM)
- EC50 [11]: 1600 nM
- Activity [24]: Active
- Emax [12]: 94%
- Kd [25]: 95 nM
- Activity [26]: Active
- EC50 [27]: 1000 nM
- EC50 [13]: 280 nM

SMILES: C=C(c1ccc(C(=O)O)cc1)c1cc2c(cc1C)C(C)(C)CCC2(C)C [BEXAROTENE]
- Activity [6]: Non-Toxic
- logP [21]: 5.2
- solubility at 24 h [23]: 0.31 µg/mL (≈ 0.89 µM)
